{
  "source": "patent US8461085B2",
  "about": "“Bioherbicide from Festuca spp” (Cornell Research Foundation, Inc., priority 2005, dated 2013)",
  "key": {"[1]": {"test_system": "lettuce seedlings (Lactuca sativa L.)", "assay": "Petri-dish bioassay, radicle elongation in lettuce seedlings", "type": "in vivo", "details": "for IC50: Lactuca sativa"}, "[2]": {"test_system": "selected monocot and dicot plants", "assay": "General phytotoxicity Petri dish bioassay, weed and crop species taken together", "type": "in vivo", "procedure": "Using the Petri dish bioassay described above, various weed and crop species were tested for their susceptibility to m-tyrosine. Concentrations evaluated were 10, 20, 40, 80, 160, and 320 μM m-tyrosine dissolved in water.\n(§1) m-Tyrosine activity was bioassayed using selected weed and crop species. Growth inhibition as measured by radicle elongation was evaluated in dandelion (Taraxacum officinale Weber in Weggers.), large crabgrass (Digitaria sanguinalis (L.) Scop.), velvetleaf (Abutilon theophrasti Medicus), black medic (Medicago lupulina L.), curly cress (Lepidium sativum L.), bamyardgrass (Echinochloa crus-galli.(L.) Beauv.), lettuce (Lactuca sativa L.), purslane (Portulaca oleracea L.), annual bluegrass (Poa annua L.), birdsfoot trefoil (Lotus corniculatus L.), broadleaf plantain (Plantago major L.), mouseear chickweed (Cerastium vulgatum L.), common chickweed (Stellaria media (L.) Vill.), white clover (Trifolium repens L.), wheat (Triticum aestivum L.), tomato (Lycopersicon esculentum var. esculentum P. Mill.), tobacco (Nicotiana tobacum L.), and sorghum sudangrass hybrid (Sorghum bicolor x Sudanese). Weeds were purchased from HerbiSeeds, England, tomato seeds were purchased from Agway (Ithaca N.Y.), and wheat, sudex and tobacco where donated by Pioneer Seeds (Johnson, Iowa). Seeds were sterilized by a water: ethanol mixture (1:1) for one minute and rinsed three times thoroughly in distilled water. The simple phytotoxicity bioassay utilized consisted of the evaluation of radicle length of ten sterilized seeds of each weed/crop deposited on a filter paper containing the appropriate m-tyrosine test solution in 4.5 cm Petri dishes. The amino acid analog, m-tyrosine was purchased from Sigma and formulated at concentrations of 0, 20, 40, 80, 160 and 320 μM by initially dissolving in aqueous solutions. A 1000 μL aliquot of the appropriate test solution was added to individual Petri dishes lined with Whatman No. 1 filter paper. Control dishes received 1000 μL of water. After seeds were placed on moistened filter paper, Petri dishes were transferred to a controlled environment with a light regime of 45,33 photon m^−2 s^−1 and maintained at an average temperature of 25° C. for 7 days. At the end of the incubation period, radicle length was measured. Treatments were replicated three times, and the experiment for each plant species tested was repeated three times."}, "[3]": {"test_system": "Metarhizium anisopliae (Metsch.)", "assay": "Fungal disc assay", "type": "cell-based", "details": "even at concentrations as high as 25 mM", "procedure": "m-Tyrosine was evaluated for its effect on several bacteria (Bacillus cereus, Bacillus subtilis, and Escherichia coli) grown on nutrient agar (Difco) plates (9 cm) and a fungal culture (Metarhizium anisopliae ([…].)) grown on potato dextrose agar (Difco) plates. These plates were spread with either 0.5 mL aliquots of a liquid bacterial culture grown for 18 h in nutrient broth or with 0.5 mL of a fungal spore suspension (1×10^6 spores/mL), and were allowed to dry for approximately 30 minutes. […] A disc moistened with 10 μl of water served as negative control, and positive controls consisted of discs spiked with ampicillin and tetracycline (5 μg). The plates were placed in an incubator at 25° C., and visually checked for zones of inhibition for up to four days. All experiments were performed in triplicate."}, "[4]": {"test_system": "onion (Allium cepa L.) root cells", "assay": "Mitotic index of onion root tip cells", "type": "cell-based", "procedure": "Root tips were stained for light microscopy examination using the Feulgen reaction. Root tips of three mm length were treated with a mixture of absolute ethanol:glacial acetic acid for two hours. The ethanol-glacial acetic acid mixture was removed and the tips were rinsed with distilled water. […] For each m-tyrosine concentration, five individual root tips were removed and macerated in a drop of 45% acetic acid on a slide, and the mitotic stages of the onion root tip cells were observed under a light microscope. […] One thousand cells were recorded per replication, resulting in observation of a total of 3000 cells per treatment. The experiment was repeated three times."}, "[5]": {"test_system": "Tomato", "assay": "Weed and crop Petri dish bioassay, radicle length", "type": "in vivo, Lycopersicon esculentum var. esculentum P. Mill.", "procedure": "as §1, with “[…].),” for “Weggers.),”, “The amino acid analog, m-tyrosine was purchased from Sigma and formulated at concentrations of 0, 20, 40, 80, 160 and 320 μM by initially dissolving in aqueous solutions.” left out, “m^-2 s^-1” for “m^−2 s^−1”"}, "[6]": {"test_system": "Arabidopsis", "assay": "Weed and crop Petri dish bioassay, radicle length", "type": "in vivo, Arabidopsis thaliana L."}, "[7]": {"test_system": "Broadleaf Plantain", "assay": "Weed and crop Petri dish bioassay, radicle length", "type": "in vivo, Plantago major L.", "procedure": "(§2) m-Tyrosine activity was bioassayed using selected weed and crop species. Growth inhibition as measured by radicle elongation was evaluated in dandelion (Taraxacum officinale Weber in […].), large crabgrass (Digitaria sanguinalis (L.) Scop.), velvetleaf (Abutilon theophrasti Medicus), black medic (Medicago lupulina L.), curly cress (Lepidium sativum L.), bamyardgrass (Echinochloa crus-galli.(L.) Beauv.), lettuce (Lactuca sativa L.), purslane (Portulaca oleracea L.), annual bluegrass (Poa annua L.), birdsfoot trefoil (Lotus corniculatus L.), broadleaf plantain (Plantago major L.), mouseear chickweed (Cerastium vulgatum L.), common chickweed (Stellaria media (L.) Vill.), white clover (Trifolium repens L.), wheat (Triticum aestivum L.), tomato (Lycopersicon esculentum var. esculentum P. Mill.), tobacco (Nicotiana tobacum L.), and sorghum sudangrass hybrid (Sorghum bicolor x Sudanese). Weeds were purchased from HerbiSeeds, England, tomato seeds were purchased from Agway (Ithaca N.Y.), and wheat, sudex and tobacco where donated by Pioneer Seeds (Johnson, Iowa). Seeds were sterilized by a water: ethanol mixture (1:1) for one minute and rinsed three times thoroughly in distilled water. […] At the end of the incubation period, radicle length was measured. […]"}, "[8]": {"test_system": "Velvetleaf", "assay": "Weed and crop Petri dish bioassay, radicle length", "type": "in vivo, Abutilon theophrasti Medicus", "procedure": "as §2"}},
  "note": "Where two headings read alike, the source gives them in different places.",
  "data": [
    {"smiles": "N[C@@H](Cc1cccc(O)c1)C(=O)O", "note": "[m-tyrosine, 3-hydroxyphenylalanine]", "values": [
      {"measurement": "reduction of root elongation of lettuce seedlings", "setting": "[1]; 20 μM loaded on filter paper", "result": 64, "unit": "%"},
      {"measurement": "IC50", "setting": "[1]; lettuce seedlings at 72 h, read-out: concentration for 50% reduction of root growth", "result": 17, "unit": "µM"},
      {"measurement": "IC50", "setting": "[1]; soil-less assay, read-out: I50, 50% inhibition of root growth of lettuce", "result": "~8", "unit": "µM"},
      {"measurement": "root elongation of pre-germinated lettuce seeds", "setting": "[1]; solutions added to pre-germinated seeds", "result": "strongly inhibited"},
      {"measurement": "effect on shoot elongation", "setting": "[2]; in vivo", "result": "inhibitory to shoot elongation"},
      {"measurement": "effect on seed germination", "setting": "[2]; numerous seedling indicators", "result": "did not affect seed germination per se"},
      {"measurement": "IC50", "setting": "[2]; range over all plants exposed, read-out: concentration required to observe 50% inhibition of radicle elongation", "result": "10 to 260", "unit": "µM"},
      {"measurement": "IC50", "setting": "[2]; range over other species evaluated (apart from mouseear chickweed), read-out: concentration for 50% inhibition of radicle elongation", "result": "14 to 253", "unit": "µM"},
      {"measurement": "sensitivity of fungal cultures", "setting": "[3]", "result": "not sensitive"},
      {"measurement": "mitotic indices in all phases of mitosis", "setting": "[4]; 20 μM", "result": "significantly reduced"},
      {"measurement": "Anaphase, total cells observed", "setting": "[4]; m-tyrosine 10 (μM)", "result": 1.6, "unit": "%"},
      {"measurement": "Metaphase, total cells observed", "setting": "[4]; m-tyrosine 10 (μM)", "result": 1.4, "unit": "%"},
      {"measurement": "Prophase, total cells observed", "setting": "[4]; m-tyrosine 10 (μM)", "result": 2.2, "unit": "%"},
      {"measurement": "Telophase, total cells observed", "setting": "[4]; m-tyrosine 10 (μM)", "result": 2, "unit": "%"},
      {"measurement": "Anaphase, total cells observed", "setting": "[4]; m-tyrosine 20 (μM)", "result": 1.1, "unit": "%"},
      {"measurement": "Metaphase, total cells observed", "setting": "[4]; m-tyrosine 20 (μM)", "result": 1, "unit": "%"},
      {"measurement": "Prophase, total cells observed", "setting": "[4]; m-tyrosine 20 (μM)", "result": 2, "unit": "%"},
      {"measurement": "Telophase, total cells observed", "setting": "[4]; m-tyrosine 20 (μM)", "result": 1, "unit": "%"},
      {"measurement": "Anaphase, total cells observed", "setting": "[4]; m-tyrosine 40 (μM)", "result": 0.6, "unit": "%"},
      {"measurement": "Metaphase, total cells observed", "setting": "[4]; m-tyrosine 40 (μM)", "result": 0.4, "unit": "%"},
      {"measurement": "Prophase, total cells observed", "setting": "[4]; m-tyrosine 40 (μM)", "result": 1, "unit": "%"},
      {"measurement": "Telophase, total cells observed", "setting": "[4]; m-tyrosine 40 (μM)", "result": 0.2, "unit": "%"},
      {"measurement": "Anaphase, total cells observed", "setting": "[4]; m-tyrosine 80 (μM)", "result": 0.5, "unit": "%"},
      {"measurement": "Metaphase, total cells observed", "setting": "[4]; m-tyrosine 80 (μM)", "result": 0, "unit": "%"},
      {"measurement": "Prophase, total cells observed", "setting": "[4]; m-tyrosine 80 (μM)", "result": 0.5, "unit": "%"},
      {"measurement": "Telophase, total cells observed", "setting": "[4]; m-tyrosine 80 (μM)", "result": 0.2, "unit": "%"},
      {"measurement": "Anaphase, total cells observed", "setting": "[4]; m-tyrosine 160 (μM)", "result": 0, "unit": "%"},
      {"measurement": "Metaphase, total cells observed", "setting": "[4]; m-tyrosine 160 (μM)", "result": 0, "unit": "%"},
      {"measurement": "Prophase, total cells observed", "setting": "[4]; m-tyrosine 160 (μM)", "result": 0.2, "unit": "%"},
      {"measurement": "Telophase, total cells observed", "setting": "[4]; m-tyrosine 160 (μM)", "result": 0.3, "unit": "%"},
      {"measurement": "I10", "setting": "[5]", "result": 35, "unit": "µM"},
      {"measurement": "I100", "setting": "[5]", "result": 160, "unit": "µM"},
      {"measurement": "IC50", "setting": "[5]; Solanum lycopersicum, read-out: I50", "result": 75, "unit": "µM"},
      {"measurement": "I10", "setting": "[6]", "result": 6, "unit": "µM"},
      {"measurement": "I100", "setting": "[6]", "result": 50, "unit": "µM"},
      {"measurement": "IC50", "setting": "[6]; Arabidopsis thaliana, read-out: I50", "result": 15, "unit": "µM"},
      {"measurement": "I10", "setting": "[7]", "result": 30, "unit": "µM"},
      {"measurement": "IC50", "setting": "[7]; Plantago major, read-out: I50", "result": 72, "unit": "µM"},
      {"measurement": "I10", "setting": "[8]", "result": 40, "unit": "µM"},
      {"measurement": "IC50", "setting": "[8]; Abutilon theophrasti, read-out: I50", "result": 168, "unit": "µM"}
    ]}
  ]
}
